Patent US20230202985A1, “Indoles, Indazoles, and Related Analogs for Inhibiting YAP/TAZ-TEAD” (THE KATHOLIEKE UNIVERSITEIT LEUVEN, priority 2021, published 2023)

Experiments:
Assay type in all cases: cell-based
[1] = test system: YAP/TAZ-TEAD transcription; experiment: Reporter gene assay for measuring the inhibition of YAP/TAZ-TEAD transcription (TEAD-responsive element luciferase reporter in Hek293T cells); details: Homo sapiens, HEK-293T; Hek293T cells transfected with TEAD-responsive luciferase reporter, 24 hours incubation
Method: Hek293T cells are cultured in DMEM supplemented with 10% fetal bovine serum, Sodium pyruvate, Sodium bicarbonate, L-glutamine. The cells are harvested and transiently transfected with TEAD-responsive element luciferase reporter. Transfected cells are plated in 384-wells plate containing pre-diluted compounds. After 24 hours incubation at 37° C./5% CO2, assay plates were cooled down to RT and levelled to an equal volume per well, prior to the addition of 25 uL luciferase substrate SteadyLite (Perkin Elmer)/well. The plate was shaken for 10 min at 600 rpm, centrifuged for 1 min at 500 rpm and measured with an Envision reader (PerkinElmer). The amount of relative light units produced by the TEAD reporter is used to calculated percent of inhibition.
The percent of reporter inhibition was calculated in the presence of a positive control inhibitor (100% inhibition) versus a condition with the presence of the vehicle basal activity of the reporter (0% inhibition). The ability of a test compound to inhibit this activity was determined as:
Percentage inhibition=[1−((RLU determined in the presence of vehicle−RLU determined for sample with test compound present) divided by (RLU determined in the presence of vehicle−RLU determined for sample with positive control inhibitor))]*100
The activities of example compounds tested are depicted in Table 6. The activity ranges A, B and C refer to IC50 values in the reporter gene assay as follows: “A”: IC50<1 μM; “B”: 1 μM≤IC50≤20 μM and “C”: IC50>20 μM; NT=not tested.

NCI-H226 = experiment: Mesothelioma cell line proliferation assay (ATPlite), NCI-H226; details: Homo sapiens, 144 h; NCI-H226 cells, 6 days with compound, cell viability by ATPlite
Method: (§1) Mesothelioma cell lines, NCI-H226 and NCI-H2052 (all sourced from the ATCC cell culture collection) are plated in 96-well plates (Corning® 96 Well White Polystyrene Microplate clear flat bottom, white polystyrene (TC-Treated)), at 1500 cells/well in full medium (RPMI 1640 ATCC modification with L-glutamine, HEPES, Phenol Red, Sodium Pyruvate, High glucose, Low sodium bicarbonate and 10% fetal bovine serum). Cells are incubated overnight at 37° C. in an incubator with 5% CO2. Then compounds, dissolved in DMSO, are added in dose-response. Cells are incubated with compound dilutions for another 6 days at 37° C. in an incubator with 5% CO2. Cell viability is quantitated using the ATPlite kit (Perkin-Elmer) and the luminescence is read-out using an Envision instrument (Perkin-Elmer). The amount of relative light units produced using the ATPlite kit is used to calculated percent of inhibition.
(§2) The activities of some example compounds are depicted in Table 7. The activity ranges A, B and C refer to EC50 values in the mesothelioma cell line proliferation assay as described as follows: “A”: EC50<1 μM; “B”: 1 μM≤EC50≤10 μM and “C”: EC50>10 μM; NT: not tested.

NCI-H2052 = experiment: Mesothelioma cell line proliferation assay (ATPlite), NCI-H2052; details: Homo sapiens, 144 h; NCI-H2052 cells, 6 days with compound, cell viability by ATPlite
Method: as §1, §2

EC50 [1]	EC50 (NCI-H226)	EC50 (NCI-H2052)	SMILES
< 1000 nM	< 1000 nM	< 1000 nM	C=CC(=O)NCc1nn(-c2ccc(C(F)(F)F)cc2)c2ccc(OCC3CCOC3)cc12 (racemic) [compound 46, N-[[5-[[rac-tetrahydrofuran-3-yl]methoxy]-1-[4-(trifluoromethyl)phenyl]indazol-3-yl]methyl]prop-2-enamide]
< 1000 nM	< 1000 nM	< 1000 nM	C=CC(=O)NCc1nn(-c2ccc(C(F)(F)F)cc2)c2ccc(OC[C@H]3CCOC3)cc12 (single isomer, unassigned) [compound 47]
< 1000 nM	< 1000 nM	< 1000 nM	C=CC(=O)NCc1nn(-c2ccc(C(F)(F)F)cc2)c2ccc(OC[C@@H]3CCOC3)cc12 (single isomer, unassigned) [compound 48]
< 1000 nM	< 1000 nM	< 1000 nM	C=CC(=O)NCc1nn(-c2ccc(OC(F)(F)F)cc2)c2ccccc12 [Cpd. No. 4, N-((1-(4-(trifluoromethoxy)phenyl)-1H-indazol-3-yl)methyl)acrylamide]
< 1000 nM	< 1000 nM	< 1000 nM	C=CC(=O)NCc1nn(-c2ccc(C(F)(F)F)cc2)c2ccc(OCC#N)cc12 [Cpd. No. 43, N-[[5-(cyanomethoxy)-1-[4-(trifluoromethyl)phenyl]indazol-3-yl]methyl]prop-2-enamide]
< 1000 nM	< 1000 nM	< 1000 nM	C=CC(=O)NCc1nn(-c2ccc(C(F)(F)F)cc2)c2ccccc12 [compound 1, N-((1-(4-(trifluoromethyl)phenyl)-1H-indazol-3-yl)methyl)acrylamide]
< 1000 nM	> 10000 nM	> 10000 nM	CS(=O)(=O)NCc1nn(-c2ccc(C(F)(F)F)cc2)c2ccccc12 [compound 3, N-((1-(4-(trifluoromethyl)phenyl)-1H-indazol-3-yl)methyl)methanesulfonamide]
< 1000 nM	< 1000 nM	< 1000 nM	C=CC(=O)NCc1nn(-c2ccc(C(F)(F)F)cc2)c2ncccc12 [compound 19, N-((1-(4-(trifluoromethyl)phenyl)-1H-pyrazolo[3,4-b]pyridin-3-yl)methyl)acrylamide]
< 1000 nM	1000 to 10000 nM	< 1000 nM	C=CC(=O)Nc1cn(-c2ccc(C(F)(F)F)cc2)c2ccccc12 [compound 20, N-(1-(4-(trifluoromethyl)phenyl)-1H-indol-3-yl)acrylamide]
< 1000 nM	< 1000 nM	1000 to 10000 nM	CC(=O)Nc1cn(-c2ccc(C(F)(F)F)cc2)c2ccccc12 [compound 21, N-(1-(4-(trifluoromethyl)phenyl)-1H-indol-3-yl)acetamide]
< 1000 nM	> 10000 nM	1000 to 10000 nM	C=CC(=O)NCc1cn(-c2ccc(C(F)(F)F)cc2)c2ccccc12 [compound 27, N-((1-(4-(trifluoromethyl)phenyl)-1H-indol-3-yl)methyl)acrylamide]
< 1000 nM	< 1000 nM	< 1000 nM	C=CC(=O)NCc1cc2ccccc2n1-c1ccc(C(F)(F)F)cc1 [compound 29, N-((1-(4-(trifluoromethyl)phenyl)-1H-indol-2-yl)methyl)acrylamide]
< 1000 nM	< 1000 nM	1000 to 10000 nM	C=CC(=O)NCc1cc2ccccc2n1Cc1ccc(C(F)(F)F)cc1 [compound 31, N-((1-(4-(trifluoromethyl)benzyl)-1H-indol-2-yl)methyl)acrylamide]
< 1000 nM	< 1000 nM	< 1000 nM	C=CC(=O)NCc1nn(-c2ccc(C(F)(F)F)cc2)c2cccnc12 [compound 40, N-((1-(4-(trifluoromethyl)phenyl)-1H-pyrazolo[4,3-b]pyridin-3-yl)methyl)acrylamide]
< 1000 nM	< 1000 nM	< 1000 nM	C=CC(=O)NCc1nn(-c2ccc(C(F)(F)F)cc2)c2ccc(Oc3ccccc3)cc12 [compound 49, N-[[5-phenoxy-1-[4-(trifluoromethyl)phenyl]indazol-3-yl]methyl]prop-2-enamide]
< 1000 nM	< 1000 nM	< 1000 nM	C=CC(=O)NCc1nn(-c2ccc(C(F)(F)F)cc2)c2cc(OC3CC3)ccc12 [compound 50, N-[[6-(cyclopropoxy)-1-[4-(trifluoromethyl)phenyl]indazol-3-yl]methyl]prop-2-enamide]
< 1000 nM	< 1000 nM	< 1000 nM	C=CC(=O)NCc1nn(-c2ccc(C(F)(F)F)cc2)c2ccc(OCc3ccccc3)cc12 [compound 54, N-[[5-benzyloxy-1-[4-(trifluoromethyl)phenyl]indazol-3-yl]methyl]prop-2-enamide]
< 1000 nM	< 1000 nM	< 1000 nM	C=CC(=O)NCc1nn(-c2ccc(C(F)(F)F)cc2)c2ccc(OCc3cc[nH]n3)cc12 [compound 58, N-[[5-(1H-pyrazol-3-ylmethoxy)-1-[4-(trifluoromethyl)phenyl]indazol-3-yl]methyl]prop-2-enamide]
< 1000 nM	< 1000 nM	< 1000 nM	C=CC(=O)NCc1nn(-c2ccc(C(F)(F)F)cc2)c2cnccc12 [compound 59, N-[[1-[4-(trifluoromethyl)phenyl]pyrazolo[3,4-c]pyridin-3-yl]methyl]prop-2-enamide]
< 1000 nM	< 1000 nM	< 1000 nM	C#CCOc1ccc2c(c1)c(CNC(=O)C=C)nn2-c1ccc(C(F)(F)F)cc1 [compound 63, N-[[5-prop-2-ynoxy-1-[4-(trifluoromethyl)phenyl]indazol-3-yl]methyl]prop-2-enamide]
< 1000 nM	< 1000 nM	< 1000 nM	C=CC(=O)NCc1nn(-c2ccc(C(F)(F)F)cc2)c2ccc(OCC3CC3)cc12 [compound 66, N-[[5-(cyclopropylmethoxy)-1-[4-(trifluoromethyl)phenyl]indazol-3-yl]methyl]prop-2-enamide]
< 1000 nM	< 1000 nM	< 1000 nM	C=CC(=O)NCc1nn(-c2ccc(C(F)(F)F)cc2)c2ccc(C(F)(F)F)cc12 [compound 71, N-[[5-(trifluoromethyl)-1-[4-(trifluoromethyl)phenyl]indazol-3-yl]methyl]prop-2-enamide]
< 1000 nM	< 1000 nM	< 1000 nM	C=CC(=O)NCc1nn(-c2ccc(C(F)(F)F)cc2)c2cc(C(F)(F)F)ccc12 [compound 74, N-[[6-(trifluoromethyl)-1-[4-(trifluoromethyl)phenyl]indazol-3-yl]methyl]prop-2-enamide]
< 1000 nM	< 1000 nM	< 1000 nM	C=CC(=O)NCc1nn(C2CCC(F)(F)CC2)c2ccccc12 [compound 77, N-[[1-(4,4-difluorocyclohexyl)indazol-3-yl]methyl]prop-2-enamide]
